Experimental data: ChEMBL document CHEMBL3885861, “Open TG-GATES”

Species: Rattus norvegicus
Test: Open TG-GATES - Regimen: Single
Assay type: toxicity, organism-based, Sprague-Dawley
Set-up: regimen Single, gender Male, age 6 weeks
Conditions: in vivo, po, route gavage; for APTT / Bas / Eos / Fbg / Hb / Lym / MCH / MCHC / MCV / Mono / PT / Plat / RBC / Ret / WBC / Ht / Neu: tissue Blood; for KIDNEY_L / KIDNEY_R / KIDNEY_TOTAL: tissue Kidney; for LIVER: tissue Liver
[1] = 60 mg/kg, 24 h, tissue Plasma, dose level Low
[2] = 200 mg/kg, 3 h, dose level Middle
[3] = 200 mg/kg, 3 h, tissue Plasma, dose level Middle
[4] = 200 mg/kg, 6 h, dose level Middle
[5] = 200 mg/kg, 6 h, tissue Plasma, dose level Middle
[6] = 200 mg/kg, 9 h, dose level Middle
[7] = 200 mg/kg, 9 h, tissue Plasma, dose level Middle
[8] = 200 mg/kg, 24 h, dose level Middle
[9] = 200 mg/kg, 24 h, tissue Plasma, dose level Middle
[10] = 400 mg/kg, 3 h, dose level High
[11] = 400 mg/kg, 3 h, tissue Plasma, dose level High
[12] = 400 mg/kg, 6 h, dose level High
[13] = 400 mg/kg, 6 h, tissue Plasma, dose level High
[14] = 400 mg/kg, 9 h, dose level High
[15] = 400 mg/kg, 9 h, tissue Plasma, dose level High
[16] = 400 mg/kg, 24 h, dose level High
[17] = 400 mg/kg, 24 h, tissue Plasma, dose level High

SMILES: CC(C)Cc1ccc(C(C)C(=O)O)cc1 (stereo not drawn) [IBUPROFEN]
- TG [1]: 83.2 mg/dL
- TP [1]: 5.5 g/dL
- gamma-GTP [1]: 1.4 IU/L
- TERMINAL_BW [2]: 203.6 g
- APTT [2]: 21.7 s
- Bas [2]: 0%
- Eos [2]: 0.8%
- Fbg [2]: 294 mg/dL
- Hb [2]: 13 g/dL
- Lym [2]: 78.6%
- MCH [2]: 21.8 pg
- MCHC [2]: 33.8%
- MCV [2]: 64.6 fL
- Mono [2]: 1.6%
- PT [2]: 15.6 s
- Plat [2]: 130.9 x10_4/uL
- RBC [2]: 596.8 x10_4/ul
- Ret [2]: 8.5%
- WBC [2]: 68.9 x10_2/uL
- KIDNEY_L [2]: 0.9 g
- KIDNEY_R [2]: 0.9 g
- KIDNEY_TOTAL [2]: 1.8 g
- LIVER [2]: 9.4 g
- ALP [3]: 1619.6 IU/L
- ALT [3]: 50.2 IU/L
- AST [3]: 86.4 IU/L
- CRE [3]: 0.2 mg/dL
- DBIL [3]: 0.002 mg/dL
- GLC [3]: 180 mg/dL
- IP [3]: 8.8 mg/dL
- K [3]: 4 meq/L
- LDH [3]: 307.4 IU/L
- Na [3]: 141.6 meq/L
- PL [3]: 125.2 mg/dL
- RALB [3]: 3.1 g/dL
- TBIL [3]: 0.022 mg/dL
- TC [3]: 73 mg/dL
- TG [3]: 64.2 mg/dL
- TP [3]: 5.4 g/dL
- gamma-GTP [3]: 1 IU/L
- TERMINAL_BW [4]: 197.7 g
- Bas [4]: 0%
- Eos [4]: 1%
- Fbg [4]: 277 mg/dL
- Hb [4]: 13.4 g/dL
- Ht [4]: 39.7%
- Lym [4]: 74.2%
- MCHC [4]: 33.7%
- MCV [4]: 65.6 fL
- Mono [4]: 2.6%
- PT [4]: 15.5 s
- Plat [4]: 122.9 x10_4/uL
- RBC [4]: 605 x10_4/ul
- Ret [4]: 8.2%
- WBC [4]: 77.7 x10_2/uL
- KIDNEY_L [4]: 0.9 g
- KIDNEY_R [4]: 0.9 g
- KIDNEY_TOTAL [4]: 1.8 g
- LIVER [4]: 8.6 g
- ALP [5]: 1495.2 IU/L
- ALT [5]: 48.6 IU/L
- AST [5]: 83.4 IU/L
- CRE [5]: 0.2 mg/dL
- DBIL [5]: 0.002 mg/dL
- GLC [5]: 170.8 mg/dL
- IP [5]: 9.6 mg/dL
- K [5]: 4.3 meq/L
- LDH [5]: 244.8 IU/L
- Na [5]: 140.4 meq/L
- PL [5]: 110.6 mg/dL
- RALB [5]: 2.8 g/dL
- TBIL [5]: 0.022 mg/dL
- TC [5]: 63.8 mg/dL
- TG [5]: 57.2 mg/dL
- TP [5]: 5.2 g/dL
- gamma-GTP [5]: 1 IU/L
- TERMINAL_BW [6]: 200.1 g
- APTT [6]: 21.5 s
- Bas [6]: 0%
- Eos [6]: 0.4%
- Fbg [6]: 268.6 mg/dL
- Hb [6]: 13.2 g/dL
- Ht [6]: 39.7%
- Lym [6]: 60.8%
- MCHC [6]: 33.3%
- MCV [6]: 63.6 fL
- Mono [6]: 3%
- Neu [6]: 35%
- PT [6]: 15.8 s
- Plat [6]: 113 x10_4/uL
- RBC [6]: 624.6 x10_4/ul
- Ret [6]: 7.8%
- WBC [6]: 87.7 x10_2/uL
- KIDNEY_L [6]: 0.9 g
- KIDNEY_R [6]: 0.9 g
- KIDNEY_TOTAL [6]: 1.8 g
- LIVER [6]: 8.1 g
- ALP [7]: 1296.6 IU/L
- ALT [7]: 37.4 IU/L
- AST [7]: 69.2 IU/L
- CRE [7]: 0.2 mg/dL
- DBIL [7]: 0.004 mg/dL
- GLC [7]: 180.2 mg/dL
- K [7]: 4.3 meq/L
- LDH [7]: 226.2 IU/L
- Na [7]: 140.6 meq/L
- RALB [7]: 2.8 g/dL
- TBIL [7]: 0.018 mg/dL
- TC [7]: 60.6 mg/dL
- TG [7]: 50.4 mg/dL
- TP [7]: 5 g/dL
- gamma-GTP [7]: 1.2 IU/L
- TERMINAL_BW [8]: 212.3 g
- APTT [8]: 21.5 s
- Bas [8]: 0%
- Eos [8]: 1%
- Fbg [8]: 360 mg/dL
- Hb [8]: 12.9 g/dL
- Ht [8]: 37.8%
- Lym [8]: 66.4%
- MCH [8]: 21.7 pg
- MCHC [8]: 34.3%
- MCV [8]: 63.3 fL
- Mono [8]: 4.2%
- PT [8]: 16.2 s
- Plat [8]: 111.7 x10_4/uL
- RBC [8]: 596.8 x10_4/ul
- Ret [8]: 7.5%
- KIDNEY_L [8]: 0.9 g
- KIDNEY_R [8]: 1 g
- KIDNEY_TOTAL [8]: 1.9 g
- ALP [9]: 1263 IU/L
- ALT [9]: 41.4 IU/L
- AST [9]: 69.2 IU/L
- CRE [9]: 0.2 mg/dL
- Ca [9]: 10.4 mg/dL
- DBIL [9]: 0 mg/dL
- GLC [9]: 182.8 mg/dL
- IP [9]: 7.6 mg/dL
- K [9]: 4.3 meq/L
- LDH [9]: 210.6 IU/L
- Na [9]: 141.8 meq/L
- PL [9]: 145.2 mg/dL
- RALB [9]: 2.7 g/dL
- TBIL [9]: 0.002 mg/dL
- TC [9]: 77 mg/dL
- TG [9]: 141.2 mg/dL
- TP [9]: 5 g/dL
- gamma-GTP [9]: 1.4 IU/L
- TERMINAL_BW [10]: 201.6 g
- APTT [10]: 20.6 s
- Bas [10]: 0%
- Eos [10]: 0.8%
- Fbg [10]: 281.4 mg/dL
- Hb [10]: 13.2 g/dL
- Ht [10]: 39.2%
- Lym [10]: 77.2%
- MCH [10]: 21.6 pg
- MCHC [10]: 33.7%
- MCV [10]: 64.2 fL
- Mono [10]: 1.6%
- Neu [10]: 19.8%
- PT [10]: 15.7 s
- Plat [10]: 118.2 x10_4/uL
- RBC [10]: 610.8 x10_4/ul
- Ret [10]: 8.1%
- WBC [10]: 69.4 x10_2/uL
- KIDNEY_L [10]: 0.9 g
- KIDNEY_R [10]: 0.9 g
- KIDNEY_TOTAL [10]: 1.8 g
- LIVER [10]: 8.7 g
- ALP [11]: 1604.2 IU/L
- ALT [11]: 52.2 IU/L
- AST [11]: 80.4 IU/L
- CRE [11]: 0.2 mg/dL
- DBIL [11]: 0 mg/dL
- GLC [11]: 162 mg/dL
- IP [11]: 9.7 mg/dL
- K [11]: 4 meq/L
- LDH [11]: 264.8 IU/L
- Na [11]: 140.6 meq/L
- RALB [11]: 2.7 g/dL
- TBIL [11]: 0.026 mg/dL
- TC [11]: 69.8 mg/dL
- TG [11]: 37.8 mg/dL
- TP [11]: 5.3 g/dL
- gamma-GTP [11]: 1.4 IU/L
- TERMINAL_BW [12]: 200.3 g
- APTT [12]: 21 s
- Bas [12]: 0%
- Eos [12]: 1%
- Fbg [12]: 283.4 mg/dL
- Hb [12]: 13.2 g/dL
- Ht [12]: 39.3%
- Lym [12]: 72.2%
- MCH [12]: 21.5 pg
- MCHC [12]: 33.7%
- MCV [12]: 63.9 fL
- Mono [12]: 2.6%
- Neu [12]: 23.4%
- PT [12]: 15.5 s
- Plat [12]: 116.4 x10_4/uL
- RBC [12]: 614.8 x10_4/ul
- Ret [12]: 8.2%
- WBC [12]: 67.5 x10_2/uL
- KIDNEY_L [12]: 0.9 g
- KIDNEY_R [12]: 0.9 g
- KIDNEY_TOTAL [12]: 1.8 g
- LIVER [12]: 8.2 g
- ALP [13]: 1535.4 IU/L
- ALT [13]: 48.8 IU/L
- AST [13]: 76 IU/L
- CRE [13]: 0.2 mg/dL
- DBIL [13]: 0.006 mg/dL
- GLC [13]: 172.8 mg/dL
- IP [13]: 9.9 mg/dL
- K [13]: 4.2 meq/L
- LDH [13]: 246.4 IU/L
- Na [13]: 140.2 meq/L
- RALB [13]: 2.9 g/dL
- TBIL [13]: 0.016 mg/dL
- TC [13]: 62.6 mg/dL
- TG [13]: 51.8 mg/dL
- TP [13]: 5.3 g/dL
- gamma-GTP [13]: 1 IU/L
- TERMINAL_BW [14]: 204.9 g
- APTT [14]: 21.6 s
- Bas [14]: 0%
- Eos [14]: 0.6%
- Fbg [14]: 261.4 mg/dL
- Ht [14]: 39.8%
- Lym [14]: 63.4%
- MCH [14]: 21.3 pg
- MCHC [14]: 33.3%
- MCV [14]: 63.8 fL
- Mono [14]: 3%
- Neu [14]: 32.8%
- PT [14]: 15.6 s
- Plat [14]: 120.1 x10_4/uL
- RBC [14]: 624.4 x10_4/ul
- Ret [14]: 7.8%
- WBC [14]: 76.3 x10_2/uL
- KIDNEY_L [14]: 0.9 g
- KIDNEY_R [14]: 0.9 g
- KIDNEY_TOTAL [14]: 1.8 g
- LIVER [14]: 8.2 g
- ALP [15]: 1623.8 IU/L
- ALT [15]: 43.4 IU/L
- AST [15]: 73 IU/L
- CRE [15]: 0.2 mg/dL
- DBIL [15]: 0.006 mg/dL
- GLC [15]: 180.4 mg/dL
- IP [15]: 10.2 mg/dL
- K [15]: 4.1 meq/L
- LDH [15]: 257 IU/L
- Na [15]: 140.8 meq/L
- PL [15]: 97.4 mg/dL
- RALB [15]: 2.8 g/dL
- TBIL [15]: 0.016 mg/dL
- TC [15]: 53.6 mg/dL
- TG [15]: 46.4 mg/dL
- TP [15]: 5 g/dL
- gamma-GTP [15]: 1 IU/L
- TERMINAL_BW [16]: 209.2 g
- APTT [16]: 21.1 s
- Bas [16]: 0%
- Eos [16]: 0.6%
- Fbg [16]: 375.8 mg/dL
- Hb [16]: 13.1 g/dL
- Ht [16]: 38.2%
- Lym [16]: 57.2%
- MCHC [16]: 34.3%
- MCV [16]: 61.7 fL
- Mono [16]: 4.2%
- Neu [16]: 36.2%
- PT [16]: 16.1 s
- RBC [16]: 619.4 x10_4/ul
- Ret [16]: 6.8%
- KIDNEY_L [16]: 0.9 g
- KIDNEY_R [16]: 1 g
- KIDNEY_TOTAL [16]: 1.9 g
- LIVER [16]: 10.1 g
- ALP [17]: 1531.4 IU/L
- ALT [17]: 44 IU/L
- AST [17]: 72.6 IU/L
- CRE [17]: 0.2 mg/dL
- DBIL [17]: 0.004 mg/dL
- GLC [17]: 175.2 mg/dL
- IP [17]: 7.5 mg/dL
- K [17]: 4.3 meq/L
- LDH [17]: 212.4 IU/L
- Na [17]: 141 meq/L
- PL [17]: 129.4 mg/dL
- RALB [17]: 2.7 g/dL
- TBIL [17]: 0.002 mg/dL
- TG [17]: 104.2 mg/dL
- TP [17]: 4.9 g/dL
- gamma-GTP [17]: 1 IU/L
